Experiments:
[1] = test system: viable and non-viable E. coli; assay: Viability staining of mixed viable/non-viable E. coli in solution: fluorescent probe and two PET quenchers; assay type: cell-based; settings: 0.005 mM Oxazine 170 perchlorate, 0.4 mM p-Sulfonic calix[6]arene, 100 mM sodium ascorbate in PBS; about 5 min
Procedure: The viable and heat killed E. coli were preparations were prepared as described in Example 1. The heat killed E. coli suspension was then combined with the viable cell suspension and mixed by vortexing. The resulting cell suspension served as the viable and non-viable E. coli solution. A fluorescent probe-quencher stain was prepared as a solution consisting of 0.005 mM Oxazine 170 perchlorate (Sigma-Aldrich, St. Louis, Mo.), 0.4 mM p-Sulfonic calix[6]arene (TCI America, Portland, Oreg.), 100 mM Sodium ascorbate (Sigma-Aldrich, St. Louis, Mo.) in PBS. The viable and non-viable E. coli suspension was then diluted 1:1000 into the fluorescent probe-quencher solution to stain the cells. After incubation for approximately 5 minutes, a droplet of the stained cell solution was placed onto a microscope slide and imaged on a fluorescent microscope (Carl Zeiss, LLC, Thornwood, N.Y.). FIGS. 20A and 20B show a combined image of the viable and non-viable stained E. coli captured under phase contrast (FIG. 20A) as well as fluorescent conditions (excitation 575-625 nm, emission 660-710 nm) (FIG. 20B). The viable and non-viable cells were indistinguishable in phase contrast but under fluorescent conditions the viable cells were brightly fluorescent whereas the non viable cells were not.

[2] = test system: viable and heat killed E. coli; assay: Viability staining of E. coli captured on a membrane: fluorescent probe and quencher wash, fluorescence microscopy; assay type: cell-based; settings: 0.005 mM Oxazine 170 perchlorate stain, then 10 mM sodium ascorbate wash
Procedure: Viable and non-viable E. coli cell fractions were prepared by picking a colony cultured on a conventional media plate and then transferring the cells into Phosphate Buffered Saline (PBS). The cells then were suspended by vortexing and then were further diluted in PBS to give a turbidity equivalent to a 1.0 McFarland standard. This stock solution served as the live cell fraction. An aliquot of the live cell fraction was transferred to a glass tube that was placed into a boiling water bath for about 15 minutes to heat kill the E. coli. The tube was removed from the bath and allowed to cool to room temperature. This heat killed suspension served as the dead cell fraction. A fluorescent stain solution was prepared as a 0.005 mM solution of Oxazine 170 perchlorate (Sigma-Aldrich, St. Louis, Mo.) in PBS containing a 1:100,000 dilution of 10% w/v 0.8 μm Sky Blue latex fluorescent particles (Spherotech, Lake Forest, Ill.). A separate quencher wash solution was prepared as a 10 mM Sodium ascorbate (Sigma-Aldrich, St. Louis, Mo.) solution in PBS. […] The cells then were imaged using a fluorescent microscope (Carl Zeiss, LLC—Thornwood, N.Y.) with an excitation of 575 nm-625 nm and measured emission of 660 nm-710 nm. […]

Structure (SMILES) | Permeation of the quencher through non-viable cell membranes and quenching of fluorescence [1] | Permeation of the quencher into heat killed cells (quenching of fluorescent signal) ([2]; heat killed E. coli on 0.2 μm membrane) | Permeation of the quencher into viable cells ([2]; live E. coli on 0.2 μm membrane, ex 575-625 nm, em 660-710 nm)
O=S(=O)(O)c1cc2c(O)c(c1)Cc1cc(S(=O)(=O)O)cc(c1O)Cc1cc(S(=O)(=O)O)cc(c1O)Cc1cc(S(=O)(=O)O)cc(c1O)Cc1cc(S(=O)(=O)O)cc(c1O)Cc1cc(S(=O)(=O)O)cc(c1O)C2 [p-Sulfonic calix[6]arene, 4- Sulfocalix [6]arene] | permeated the non-viable cell membranes resulting in an effective quenching of fluorescence | – | –
O=C1O[C@H]([C@@H](O)CO)C([O-])=C1O.[Na+] [sodium ascorbate, Sodium Ascorbate] | permeated the non-viable cell membranes resulting in an effective quenching of fluorescence | permeated | excluded from the viable cells
